Assay results from US8802661B2, “C-28 amides of modified C-3 betulinic acid derivatives as HIV maturation inhibitors” (priority 2010, dated 2014).
Read-outs that look alike come from different tables or passages of the source.

System: recombinant NL4-3 virus (Renilla luciferase in nef, Gag P373S)
Experiment: HIV Cell Culture Assay (luciferase reporter virus in MT-2 cells)
Type: cell-based
In short: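 Read-out is Renilla luciferase, measured immediately after adding a premixed lysis/Dual Luciferase reagent. The reporter virus, NL4-3 with luciferase replacing part of nef plus Gag P373S, infected MT-2 cells for 4–5 days under serially diluted inhibitor.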

SMILES | EC50 (NL43, read-out: EC50 Group) [nM] | EC50 (NL43) [nM]
C=C(C)[C@@H]1CC[C@]2(C(=O)NCCNCCS(=O)(=O)O)CC[C@]3(C)[C@H](CC[C@@H]4[C@@]5(C)CC=C(c6ccc(C(=O)O)cc6)C(C)(C)[C@@H]5CC[C@]43C)[C@@H]12 [Example 92, 4-((1R,3aS,5aR,5bR,7aR,11aS,11bR,13aR,13bR)-5a,5b,8,8,11a-pentamethyl-1-(prop-1-en-2-yl)-3a-(2-(2-sulfoethylamino)ethylcarbamoyl)-2,3,3a,4,5,5a,5b,6,7,7a,8,11,11a,11b,12,13,13a,13b-octadecahydro-1H-cyclopenta[a]chrysen-9-yl)benzoic acid] | < 100 | 
C=C(C)[C@@H]1CC[C@]2(C(=O)NCCN(CCC)CCC(=O)O)CC[C@]3(C)[C@H](CC[C@@H]4[C@@]5(C)CC=C(c6ccc(C(=O)O)cc6)C(C)(C)[C@@H]5CC[C@]43C)[C@@H]12 [Example 93, 4-((1R,3aS,5aR,5bR,7aR,11aS,11bR,13aR,13bR)-3a-(2-((2-carboxyethyl)(propyl)amino)ethylcarbamoyl)-5a,5b,8,8,11a-pentamethyl-1-(prop-1-en-2-yl)-2,3,3a,4,5,5a,5b,6,7,7a,8,11,11a,11b,12,13,13a,13b-octadecahydro-1H-cyclopenta[a]chrysen-9-yl)benzoic acid] | < 100 | 
C=C(C)[C@@H]1CC[C@]2(C(=O)NCCN(CCC)CC(=O)O)CC[C@]3(C)[C@H](CC[C@@H]4[C@@]5(C)CC=C(c6ccc(C(=O)O)cc6)C(C)(C)[C@@H]5CC[C@]43C)[C@@H]12 [Example 94, 4-((1R,3aS,5aR,5bR,7aR,11aS,11bR,13aR,13bR)-3a-(2-((carboxymethyl)(propyl)amino)ethylcarbamoyl)-5a,5b,8,8,11a-pentamethyl-1-(prop-1-en-2-yl)-2,3,3a,4,5,5a,5b,6,7,7a,8,11,11a,11b,12,13,13a,13b-octadecahydro-1H-cyclopenta[a]chrysen-9-yl)benzoic acid] | < 100 | 
C=C(C)[C@@H]1CC[C@]2(C(=O)NCCN(CC(=O)O)C(C)C)CC[C@]3(C)[C@H](CC[C@@H]4[C@@]5(C)CC=C(c6ccc(C(=O)O)cc6)C(C)(C)[C@@H]5CC[C@]43C)[C@@H]12 [Example 95, 4-((1R,3aS,5aR,5bR,7aR,11aS,11bR,13aR,13bR)-3a-(2-((carboxymethyl)(isopropyl)amino)ethylcarbamoyl)-5a,5b,8,8,11a-pentamethyl-1-(prop-1-en-2-yl)-2,3,3a,4,5,5a,5b,6,7,7a,8,11,11a,11b,12,13,13a,13b-octadecahydro-1H-cyclopenta[a]chrysen-9-yl)benzoic acid] | < 100 | 
C=C(C)[C@@H]1CC[C@]2(C(=O)NCCN(CCC(=O)O)C(C)C)CC[C@]3(C)[C@H](CC[C@@H]4[C@@]5(C)CC=C(c6ccc(C(=O)O)cc6)C(C)(C)[C@@H]5CC[C@]43C)[C@@H]12 [Example 96, 4-((1R,3aS,5aR,5bR,7aR,11aS,11bR,13aR,13bR)-3a-(2-((2-carboxyethyl)(isopropyl)amino)ethylcarbamoyl)-5a,5b,8,8,11a-pentamethyl-1-(prop-1-en-2-yl)-2,3,3a,4,5,5a,5b,6,7,7a,8,11,11a,11b,12,13,13a,13b-octadecahydro-1H-cyclopenta[a]chrysen-9-yl)benzoic acid] | < 100 | 
CC(C)[C@@H]1CC[C@]2(C(=O)NCC[N+](C)(C)[O-])CC[C@]3(C)[C@H](CC[C@@H]4[C@@]5(C)CC=C(c6ccc(C(=O)O)cc6)C(C)(C)[C@@H]5CC[C@]43C)[C@@H]12 [Example 97, 2-((1S,3aS,5aR,5bR,7aR,11aS,11bR,13aR,13bR)-9-(4-carboxyphenyl)-1-isopropyl-5a,5b,8,8,11a-pentamethyl-2,3,3a,4,5,5a,5b,6,7,7a,8,11,11a,11b,12,13,13a,13b-octadecahydro-1H-cyclopenta[a]chrysene-3a-carboxamido)-N,N-dimethylethanamine oxide] |  | 2.6
C=C(C)[C@@H]1CC[C@]2(C(=O)NCCCN)CC[C@]3(C)[C@H](CC[C@@H]4[C@@]5(C)CC=C(c6ccc(C(=O)O)cc6)C(C)(C)[C@@H]5CC[C@]43C)[C@@H]12 [Example 98, 4-((1R,3aS,5aR,5bR,7aR,11aS,11bR,13aR,13bR)-3a-(3-aminopropylcarbamoyl)-5a,5b,8,8,11a-pentamethyl-1-(prop-1-en-2-yl)-2,3,3a,4,5,5a,5b,6,7,7a,8,11,11a,11b,12,13,13a,13b-octadecahydro-1H-cyclopenta[a]chrysen-9-yl)benzoic acid] | < 100 | 
C=C(C)[C@@H]1CC[C@]2(C(=O)NCCCN(CC)CCC(=O)O)CC[C@]3(C)[C@H](CC[C@@H]4[C@@]5(C)CC=C(c6ccc(C(=O)O)cc6)C(C)(C)[C@@H]5CC[C@]43C)[C@@H]12 [Example 99, 4-((1R,3aS,5aR,5bR,7aR,11aS,11bR,13aR,13bR)-3a-(3-((2-carboxyethyl)(ethyl)amino)propylcarbamoyl)-5a,5b,8,8,11a-pentamethyl-1-(prop-1-en-2-yl)-2,3,3a,4,5,5a,5b,6,7,7a,8,11,11a,11b,12,13,13a,13b-octadecahydro-1H-cyclopenta[a]chrysen-9-yl)benzoic acid] | < 100 | 
C=C(C)[C@@H]1CC[C@]2(C(=O)NCCCN(CCC(=O)O)CCC(=O)O)CC[C@]3(C)[C@H](CC[C@@H]4[C@@]5(C)CC=C(c6ccc(C(=O)O)cc6)C(C)(C)[C@@H]5CC[C@]43C)[C@@H]12 [Example 100, 3,3′-(3-((1R,3aS,5aR,5bR,7aR,11aS,11bR,13aR,13bR)-9-(4-carboxyphenyl)-5a,5b,8,8,11a-pentamethyl-1-(prop-1-en-2-yl)-2,3,3a,4,5,5a,5b,6,7,7a,8,11,11a,11b,12,13,13a,13b-octadecahydro-1H-cyclopenta[a]chrysene-3a-carboxamido)propylazanediyl)dipropanoic acid] | > 100 | 
C=C(C)[C@@H]1CC[C@]2(C(=O)NCCCN(CC)CCCC(=O)O)CC[C@]3(C)[C@H](CC[C@@H]4[C@@]5(C)CC=C(c6ccc(C(=O)O)cc6)C(C)(C)[C@@H]5CC[C@]43C)[C@@H]12 [Example 101, 4-((1R,3aS,5aR,5bR,7aR,11aS,11bR,13aR,13bR)-3a-(3-((3-carboxypropyl)(ethyl)amino)propylcarbamoyl)-5a,5b,8,8,11a-pentamethyl-1-(prop-1-en-2-yl)-2,3,3a,4,5,5a,5b,6,7,7a,8,11,11a,11b,12,13,13a,13b-octadecahydro-1H-cyclopenta[a]chrysen-9-yl)benzoic acid] | < 100 | 
C=C(C)[C@@H]1CC[C@]2(C(=O)NCCCN(CC)CC(=O)O)CC[C@]3(C)[C@H](CC[C@@H]4[C@@]5(C)CC=C(c6ccc(C(=O)O)cc6)C(C)(C)[C@@H]5CC[C@]43C)[C@@H]12 [Example 102, 4-((1R,3aS,5aR,5bR,7aR,11aS,11bR,13aR,13bR)-3a-(3-((carboxymethyl)(ethyl)amino)propylcarbamoyl)-5a,5b,8,8,11a-pentamethyl-1-(prop-1-en-2-yl)-2,3,3a,4,5,5a,5b,6,7,7a,8,11,11a,11b,12,13,13a,13b-octadecahydro-1H-cyclopenta[a]chrysen-9-yl)benzoic acid] |  | 10.5
C=C(C)[C@@H]1CC[C@]2(C(=O)NCCN(CC)CCCC(=O)O)CC[C@]3(C)[C@H](CC[C@@H]4[C@@]5(C)CC=C(c6ccc(C(=O)O)cc6)C(C)(C)[C@@H]5CC[C@]43C)[C@@H]12 [Example 103, 4-((1R,3aS,5aR,5bR,7aR,11aS,11bR,13aR,13bR)-3a-(2-((3-carboxypropyl)(ethyl)amino)ethylcarbamoyl)-5a,5b,8,8,11a-pentamethyl-1-(prop-1-en-2-yl)-2,3,3a,4,5,5a,5b,6,7,7a,8,11,11a,11b,12,13,13a,13b-octadecahydro-1H-cyclopenta[a]chrysen-9-yl)benzoic acid] | < 100 | 
C=C(C)[C@@H]1CC[C@]2(C(=O)NCCN(C)C)CC[C@]3(C)[C@H](CC[C@@H]4[C@@]5(C)CC=C(c6ccc(C(=O)O)c(F)c6)C(C)(C)[C@@H]5CC[C@]43C)[C@@H]12 [Example 104, 4-((1R,3aS,5aR,5bR,7aR,11aS,11bR,13aR,13bR)-3a-(2-(dimethylamino)ethylcarbamoyl)-5a,5b,8,8,11a-pentamethyl-1-(prop-1-en-2-yl)-2,3,3a,4,5,5a,5b,6,7,7a,8,11,11a,11b,12,13,13a,13b-octadecahydro-1H-cyclopenta[a]chrysen-9-yl)-2-fluorobenzoic acid] | < 100 | 
C=C(C)[C@@H]1CC[C@]2(C(=O)NCCCN3CCS(=O)(=O)CC3)CC[C@]3(C)[C@H](CC[C@@H]4[C@@]5(C)CC=C(c6ccc(C(=O)O)c(F)c6)C(C)(C)[C@@H]5CC[C@]43C)[C@@H]12 [Example 105, 4-((1R,3aS,5aR,5bR,7aR,11aS,11bR,13aR,13bR)-3a-((3-(1,1-dioxido-4-thiomorpholinyl)propyl)carbamoyl)-1-isopropenyl-5a,5b,8,8,11a-pentamethyl-2,3,3a,4,5,5a,5b,6,7,7a,8,11,11a,11b,12,13,13a,13b-octadecahydro-1H-cyclopenta[a]chrysen-9-yl)-2-fluorobenzoic acid] | < 100 | 
C=C(C)[C@@H]1CC[C@]2(C(=O)NCCN3CCS(=O)(=O)CC3)CC[C@]3(C)[C@H](CC[C@@H]4[C@@]5(C)CC=C(c6ccc(C(=O)O)cc6)C(C)(C)[C@@H]5CC[C@]43C)[C@@H]12 [Example 106, 4-((1R,3aS,5aR,5bR,7aR,11aS,11bR,13aR,13bR)-3a-((2-(1,1-dioxido-4-thiomorpholinyl)ethyl)carbamoyl)-1-isopropenyl-5a,5b,8,8,11a-pentamethyl-2,3,3a,4,5,5a,5b,6,7,7a,8,11,11a,11b,12,13,13a,13b-octadecahydro-1H-cyclopenta[a]chrysen-9-yl)benzoic acid] | < 100 | 
